Results as given in US9834542B2, “LXR modulators” (BRISTOL-MYERS SQUIBB COMPANY, priority 2013, dated 2017).

Biological target: T1, LXRβ (Homo sapiens, UniProt P55055)
T1 construct: Co-transfection expression plasmids, comprising full-length LXRα (pCMX-h LXRα[…] or LXRβ (pCMX-hLXRβ)); expressed in transfected cells; host or cells: CV-1 African Green Monkey Kidney Cells
T1 sequence (P55055 1-460): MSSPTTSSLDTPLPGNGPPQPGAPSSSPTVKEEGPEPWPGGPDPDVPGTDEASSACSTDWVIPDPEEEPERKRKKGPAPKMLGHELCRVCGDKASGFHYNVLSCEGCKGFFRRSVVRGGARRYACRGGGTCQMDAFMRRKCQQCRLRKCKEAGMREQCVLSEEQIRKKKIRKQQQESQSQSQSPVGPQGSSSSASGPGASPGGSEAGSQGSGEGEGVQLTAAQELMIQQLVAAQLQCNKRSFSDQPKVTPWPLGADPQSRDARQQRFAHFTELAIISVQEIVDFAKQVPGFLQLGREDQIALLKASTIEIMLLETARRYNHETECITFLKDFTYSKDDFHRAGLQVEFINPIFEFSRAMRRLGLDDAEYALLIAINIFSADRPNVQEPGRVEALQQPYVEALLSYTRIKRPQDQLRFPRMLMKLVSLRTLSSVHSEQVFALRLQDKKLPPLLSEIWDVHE
T1 sequence (P19793 1-462 partner): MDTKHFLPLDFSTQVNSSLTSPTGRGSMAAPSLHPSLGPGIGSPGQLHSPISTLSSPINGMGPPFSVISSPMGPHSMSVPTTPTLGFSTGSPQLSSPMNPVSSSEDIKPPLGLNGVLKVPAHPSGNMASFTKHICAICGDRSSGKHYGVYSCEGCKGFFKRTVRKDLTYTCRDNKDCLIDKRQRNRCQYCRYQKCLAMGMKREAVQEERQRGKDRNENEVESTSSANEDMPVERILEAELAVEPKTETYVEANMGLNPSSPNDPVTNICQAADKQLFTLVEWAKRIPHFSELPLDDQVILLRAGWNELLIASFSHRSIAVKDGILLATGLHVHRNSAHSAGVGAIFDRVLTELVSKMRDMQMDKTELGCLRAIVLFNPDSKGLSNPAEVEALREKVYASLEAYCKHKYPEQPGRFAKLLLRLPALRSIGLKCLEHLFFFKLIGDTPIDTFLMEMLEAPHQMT
Assay: Co-transfection assay (LXRE luciferase reporter), LXRβ
Type: cell-based
Conditions: for EC50: CV-1 cells transfected with pCMX-hLXRβ and LXREx1-Tk-Luciferase, 20 hours incubation; for Emax: LXRβ co-transfection, relative to high control 1-(2,4-difluorobenzyl)-2-oxo-6-(4-phenoxyphenyl)-4-(trifluoromethyl)-1,2-dihydropyridine-3-carbonitrile, read-out: % Efficacy
Summary of the method: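 Luciferase signal from an LXREx1-Tk reporter was measured after transfected CV-1 cells (full-length hLXRβ, endogenous RXR) were treated with compounds for 20 h at 37 °C, ≤0.5% DMSO. EC50 came from four-parameter fits of 11-point ½-log curves; % efficacy versus a reference agonist maximum.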

EC50 [nM]	Emax [%]	Structure (SMILES)
58	70	Cc1nc(-c2cc(-c3cc(F)c(CO)c(S(C)(=O)=O)c3)ccc2-n2cc(C(F)(F)F)nc2C)c(-c2ccc(F)c(Cl)c2)o1 [Example 509, (3′-(5-(3-chloro-4-fluorophenyl)-2-methyloxazol-4-yl)-3-fluoro-4′-(2-methyl-4-(trifluoromethyl)-1H-imidazol-1-yl)-5-(methylsulfonyl)biphenyl-4-yl)methanol]
1040	26	Cc1nc(-c2cc(-c3cc(F)c(CO)c(S(C)(=O)=O)c3)ccc2-n2cc(C(C)(C)O)nc2C)c(-c2ccc3c(c2)OC(F)(F)O3)o1 [Example 370, 2-(1-(3-(5-(2,2-difluorobenzo[d][1,3]dioxol-5-yl)-2-methyloxazol-4-yl)-3′-fluoro-4′-(hydroxymethyl)-5′-(methylsulfonyl)biphenyl-4-yl)-2-methyl-1H-imidazol-4-yl)propan-2-ol]
256	71	Cc1nc(C(F)F)cn1-c1ccc(-c2cccc(S(C)(=O)=O)c2)cc1-n1nncc1C(C)c1ccc(Cl)cc1 (stereo not shown) [Example 133, 5-[1-(4-chlorophenyl)ethyl]-1-{4-[4-(difluoromethyl)-2-methyl-1H-imidazol-1-yl]-3′-(methylsulfonyl)biphenyl-3-yl}-1H-1,2,3-triazole]
739	71	Cc1nc(C(F)(F)F)cn1-c1ccc(-c2cc(F)c(CO)c(S(C)(=O)=O)c2)cc1-c1nc(CCO)oc1-c1ccc2c(c1)OC(F)(F)O2 [Example 530, 2-(5-(2,2-difluorobenzo[d][1,3]dioxol-5-yl)-4-(3′-fluoro-4′-(hydroxymethyl)-4-(2-methyl-4-(trifluoromethyl)-1H-imidazol-1-yl)-5′-(methylsulfonyl)-[1,1′-biphenyl]-3-yl)oxazol-2-yl)ethanol]
408	55	CS(=O)(=O)c1cccc(-c2cc(Cl)c(-n3cnc(C(F)(F)F)c3)c(-n3nncc3-c3ccc(Cl)cc3)c2)c1 [Example 7, 1-(5-chloro-3′-(methylsulfonyl)-4-(4-(trifluoromethyl)-1H-imidazol-1-yl)biphenyl-3-yl)-5-(4-chlorophenyl)-1H-1,2,3-triazole]
447	42	Cc1nc(Cl)cn1-c1ccc(-c2cc(F)c(CO)c(S(C)(=O)=O)c2)cc1-n1nncc1-c1ccc(Cl)cc1 [Example 148, [4′-(4-chloro-2-methyl-1H-imidazol-1-yl)-3′-[5-(4-chlorophenyl)-1H-1,2,3-triazol-1-yl]-3-fluoro-5-(methylsulfonyl)biphenyl-4-yl]methanol]
14	82	CCCc1nc(-c2cc(-c3cc(F)c(CO)c(S(C)(=O)=O)c3)ccc2-n2cc(C(F)(F)F)nc2C)c(-c2ccc(OC(F)(F)F)cc2)o1 [Example 557, (3-fluoro-4′-(2-methyl-4-(trifluoromethyl)-1H-imidazol-1-yl)-5-(methylsulfonyl)-3′-(2-propyl-5-(4-(trifluoromethoxy)phenyl)oxazol-4-yl)-[1,1′-biphenyl]-4-yl)methanol]
701	93	Cc1nc(C(F)F)cn1-c1ccc(-c2cccc(S(=O)(=O)N(C)C)c2)cc1-n1nncc1-c1ccc(OC(F)(F)F)cc1 [Example 155, 4′-[4-(difluoromethyl)-2-methyl-1H-imidazol-1-yl]-N,N-dimethyl-3′-(5-{4-[(trifluoromethyl)oxy]phenyl}-1H-1,2,3-triazol-1-yl)biphenyl-3-sulfonamide]
724	60	CC(=O)c1ccc(-c2cnnn2-c2cc(-c3cccc(S(C)(=O)=O)c3)ccc2-n2cc(C(F)(F)F)nc2C)cc1 [Example 36, 1-[4-(1-{3′-(methylsulfonyl)-4-[2-methyl-4-(trifluoromethyl)-1H-imidazol-1-yl]biphenyl-3-yl}-1H-1,2,3-triazol-5-yl)phenyl]ethanone]
1650	78	COc1ccc(-c2cnnn2-c2cc(-c3cccc(S(C)(=O)=O)c3)ccc2-n2cc(C(F)F)nc2C)cc1 [Example 166, 1-{4-[4-(difluoromethyl)-2-methyl-1H-imidazol-1-yl]-3′-(methylsulfonyl)biphenyl-3-yl}-5-[4-(methyloxy)phenyl]-1H-1,2,3-triazole]

Second part, the compound before the results:

Structure (SMILES)	EC50 [nM]	Emax [%]
Cc1nc(C(F)(F)F)cn1-c1ccc(-c2cccc(S(C)(=O)=O)c2)cc1-n1nncc1-c1ccc(Cl)c(C(F)(F)F)c1 [Example 64, 5-[4-chloro-3-(trifluoromethyl)phenyl]-1-{3′-(methylsulfonyl)-4-[2-methyl-4-(trifluoromethyl)-1H-imidazol-1-yl]biphenyl-3-yl}-1H-1,2,3-triazole]	289	86
Cc1nc(C(F)(F)C(C)C)cn1-c1ccc(-c2cc(F)c(CO)c(S(C)(=O)=O)c2)cc1-n1nncc1-c1ccc(OC(F)(F)F)cc1 [Example 221, (4′-(4-(1,1-difluoro-2-methylpropyl)-2-methyl-1H-imidazol-1-yl)-3-fluoro-5-(methylsulfonyl)-3′-(5-(4-(trifluoromethoxy)phenyl)-1H-1,2,3-triazol-1-yl)-[1,1′-biphenyl]-4-yl)methanol]	111	69
Cc1nc(C(C)(F)F)cn1-c1ccc(-c2cccc(S(C)(=O)=O)c2)cc1-n1nncc1-c1ccc(OC(F)(F)F)cc1 [Example 165, 1-{4-[4-(1,1-difluoroethyl)-2-methyl-1H-imidazol-1-yl]-3′-(methylsulfonyl)biphenyl-3-yl}-5-{4-[(trifluoromethyl)oxy]phenyl}-1H-1,2,3-triazole]	643	66
Cc1nc(-c2cc(-c3cc(F)cc(S(C)(=O)=O)c3)ccc2-n2cc(C(F)(F)F)nc2C)c(-c2ccc(OC(F)F)c(F)c2)o1 [Example 462]	233	73
Cc1nc(-c2cc(-c3ccc(CO)c(S(C)(=O)=O)c3)ccc2-n2cc(C(F)(F)F)nc2C)c(-c2cc(F)c(OC(F)F)c(F)c2)o1 [Example 469, (3′-(5-(4-(difluoromethoxy)-3,5-difluorophenyl)-2-methyloxazol-4-yl)-4′-(2-methyl-4-(trifluoromethyl)-1H-imidazol-1-yl)-3-(methylsulfonyl)biphenyl-4-yl)methanol]	89	70
Cc1nc(-c2cc(-c3cccc(S(C)(=O)=O)c3)ccc2-n2cc(C(F)(F)F)nc2C)c(-c2ccc(OC3CCCC3)nc2)o1 [Example 410, 5-(6-(cyclopentyloxy)pyridin-3-yl)-2-methyl-4-(4-(2-methyl-4-(trifluoromethyl)-1H-imidazol-1-yl)-3′-(methylsulfonyl)biphenyl-3-yl)oxazole]	204	49
COc1ccc(-c2ccc(-n3cc(C(F)(F)F)nc3C)c(-n3nncc3-c3ccc(OC(F)(F)F)cc3)c2)cc1S(C)(=O)=O [Example 94, 1-{4′-(methyloxy)-3′-(methylsulfonyl)-4-[2-methyl-4-(trifluoromethyl)-1H-imidazol-1-yl]biphenyl-3-yl}-5-{4-[(trifluoromethyl)oxy]phenyl}-1H-1,2,3-triazole]	2340	71
Cc1nc(C(F)F)cn1-c1ccc(-c2cccc(S(C)(=O)=O)c2)cc1-n1nncc1-c1ccc2c(c1)OC(F)(F)O2 [Example 167, 5-(2,2-difluoro-1,3-benzodioxol-5-yl)-1-{4-[4-(difluoromethyl)-2-methyl-1H-imidazol-1-yl]-3′-(methylsulfonyl)biphenyl-3-yl}-1H-1,2,3-triazole]	779	107
Cc1nc(-c2cc(-c3cccc(S(C)(=O)=O)c3)ccc2-n2cc(C(F)(F)F)nc2C)c(-c2cc(F)cc(Cl)c2)o1 [Example 449, 5-(3-chloro-5-fluorophenyl)-2-methyl-4-(4-(2-methyl-4-(trifluoromethyl)-1H-imidazol-1-yl)-3′-(methylsulfonyl)biphenyl-3-yl)oxazole]	183	57
Cc1ccc(C(C)c2cnnn2-c2cc(-c3cc(Cl)c(CO)c(S(C)(=O)=O)c3)ccc2-n2cc(C(F)(F)F)nc2C)cc1 (stereo not shown) [Example 110, (3-chloro-3′-{5-[1-(4-methylphenyl)ethyl]-1H-1,2,3-triazol-1-yl}-5-(methylsulfonyl)-4′-[2-methyl-4-(trifluoromethyl)-1H-imidazol-1-yl]biphenyl-4-yl)methanol]	103	77
